The values below come from US11787830B2, “Crystalline solids of nicotinic acid mononucleotide and esters thereof and methods of making and use” (Metro International Biotech, LLC, priority 2021, dated 2023).

Structures are written as SMILES. Values after ≈ are worked out from the molar mass of the structure shown.

This data set is described as follows: physchem. Here is the method: An additional 2 mL of water was added to give a clear solution. […] This was allowed to stir for two days at ambient temperature. The solids were filtered and washed with 15 mL of (2:1 v:v) 1-propanol:water, 15 mL of 1-propanol, then 2×15 mL of methyl tert-butyl ether.

For `O=C([O-])c1ccc[n+]([C@@H]2O[C@H](COP(=O)(O)O)[C@@H](O)[C@H]2O)c1` [Compound 2, Nicotinic acid mononucleotide], the “water solubility as ratio water:Compound 2” value is on record as 50:1 w:w. The same compound came in with a solubility (water) of approximately 20 mg/mL (≈ 59.7 mM).

The term solubility denotes how much of the substance goes into solution per volume.
